Source: patent US8399378B2, “Use of neonicotinoids in pest control” (Syngenta Crop Protection LLC, priority 1998, dated 2013)

What was measured:
Type in all cases: in vivo
Anthonomus grandis [1] = test: Spray test on young cotton plants, action against Anthonomus grandis adults; conditions: spray 100, 50, 10, 5, 1 ppm, evaluation 3 to 10 days
Source text: (§1) Young transgenic cotton plants which express the δ-endotoxin CryIIIA are sprayed with an aqueous emulsion spray mixture comprising 100, 50, 10, 5, 1 ppm of imidacloprid respectively. After the spray coating has dried on, the cotton plants are populated with 10 adult Anthonomus grandis, 10 Spodoptera littoralis larvae or 10 Heliothis virescens larvae respectively and introduced into a plastic container. Evaluation takes place 3 to 10 days later.
as §1, with “thiamethoxam” for “imidacloprid”
as §1, with “Ti-435” for “imidacloprid”
as §1, with “CryIa(c)” for “CryIIIA”, “Ti-435” for “imidacloprid”
as §1, with “CryIa(c)” for “CryIIIA”, “thiamethoxam” for “imidacloprid”
as §1, with “CryIa(c)” for “CryIIIA”

Spodoptera littoralis [2] = test: Spray test on young cotton plants, action against Spodoptera littoralis larvae
Source text: as §1
as §1, with “thiamethoxam” for “imidacloprid”
as §1, with “Ti-435” for “imidacloprid”
as §1, with “CryIa(c)” for “CryIIIA”, “Ti-435” for “imidacloprid”
as §1, with “CryIa(c)” for “CryIIIA”, “thiamethoxam” for “imidacloprid”
as §1, with “CryIa(c)” for “CryIIIA”

Heliothis virescens [3] = test: Spray test on young cotton plants, action against Heliothis virescens larvae; conditions: spray 100, 50, 10, 5, 1 ppm, evaluation 3 to 10 days
Source text: as §1
as §1, with “thiamethoxam” for “imidacloprid”
as §1, with “Ti-435” for “imidacloprid”, “later. […]” for “later.”

Ostrinia nubilalis = test: Maize plot spray test (KnockOut vs conventional maize), action against Ostrinia nubilalis; conditions: 6 days; for control (percentage reduction in population, % action): plot (a) maize cv. KnockOut, spray 200, 100, 50, 10, 5, 1 ppm, natural infestation; for control level: plot (b) conventional maize, compound 200, 100, 50, 10, 5, 1 ppm, then same ppm of the endotoxin expressed by KnockOut
Protocol: (§2) A plot (a) planted with maize cv. KnockOut® and an adjacent plot (b) of the same size which is planted with conventional maize, both showing natural infestation with Ostrinia nubilalis, Spodoptera spp. or Heliothis, are sprayed with an aqueous emulsion spray mixture comprising 200, 100, 50, 10, 5, 1 ppm of Ti-435. Immediately afterwards, plot (b) is treated with an emulsion spray mixture comprising 200, 100, 50, 10, 5, 1 ppm of the endotoxin expressed by KnockOut®. Evaluation takes place 6 days later. The percentage reduction in population (% action) is determined by comparing the number of dead pests on the plants of plot (a) with that on the plants of plot (b).
as §2, with “thiamethoxam.” for “Ti-435.”
as §2, with “imidacloprid.” for “Ti-435.”

Spodoptera spp. = test: Maize plot spray test (KnockOut vs conventional maize), action against Spodoptera spp.; conditions: 6 days; for control (percentage reduction in population, % action): plot (a) maize cv. KnockOut, spray 200, 100, 50, 10, 5, 1 ppm, natural infestation; for control level: plot (b) conventional maize, compound 200, 100, 50, 10, 5, 1 ppm, then same ppm of the endotoxin expressed by KnockOut
Protocol: as §2
as §2, with “thiamethoxam.” for “Ti-435.”
as §2, with “imidacloprid.” for “Ti-435.”

Heliothis spp. = test: Maize plot spray test (KnockOut vs conventional maize), action against Heliothis spp.; conditions: 6 days; for control (percentage reduction in population, % action): plot (a) maize cv. KnockOut, spray 200, 100, 50, 10, 5, 1 ppm, natural infestation; for control level: plot (b) conventional maize, compound 200, 100, 50, 10, 5, 1 ppm, then same ppm of the endotoxin expressed by KnockOut
Protocol: as §2
as §2, with “thiamethoxam.” for “Ti-435.”
as §2, with “imidacloprid.” for “Ti-435.”

Anthonomus grandis [4] = test: Spray test on young cotton plants, action against Anthonomus grandis adults; conditions: non-transgenic cotton treated with compound and conventional CryIIIA-toxin, each 100, 50, 10, 5, 1 ppm
Spodoptera littoralis [5] = test: Spray test on young cotton plants, action against Spodoptera littoralis larvae; remark: listed apart in the source
Heliothis virescens [6] = test: Spray test on young cotton plants, action against Heliothis virescens larvae; conditions: non-transgenic cotton treated with compound and conventional CryIIIA-toxin, each 100, 50, 10, 5, 1 ppm
[7] = transgenic cotton expressing δ-endotoxin CryIIIA, compared with non-transgenic plant
[8] = transgenic cotton expressing δ-endotoxin CryIa(c)
[9] = non-transgenic cotton treated with compound and conventional CryIIIA-toxin, each 100, 50, 10, 5, 1 ppm, comparison arm for CryIa(c) cotton
[10] = transgenic cotton expressing δ-endotoxin CryIa(c), spray 100, 50, 10, 5, 1 ppm, evaluation 3 to 10 days
[11] = comparison arm for CryIIIA cotton
[12] = comparison arm for CryIa(c) cotton
[13] = transgenic cotton expressing δ-endotoxin CryIIIA, spray 100, 50, 10, 5, 1 ppm, evaluation 3 to 10 days, compared with non-transgenic plant

CN/C(=N\[N+](=O)[O-])NCc1cnc(Cl)s1 [Ti-435]
control of the tested insects (percentage reduction in population or feeding damage, % action) (Anthonomus grandis [1]; [7]): superior | control of the tested insects (percentage reduction in population or feeding damage, % action) (Anthonomus grandis [1]; [8]): superior | control of the tested insects (percentage reduction in population or feeding damage, % action) (Spodoptera littoralis [2]; [9]): insufficient | control of the tested insects (percentage reduction in population or feeding damage, % action) (Spodoptera littoralis [2]; [10]): superior | control of the tested insects (percentage reduction in population or feeding damage, % action) (Heliothis virescens [3]; [7]): superior | control of the tested insects (percentage reduction in population or feeding damage, % action) (Heliothis virescens [3]; [8]): superior | control (percentage reduction in population, % action) (Ostrinia nubilalis): Improved control | control level (Ostrinia nubilalis): ≤ 60% | control (percentage reduction in population, % action) (Spodoptera spp.): Improved control | control level (Spodoptera spp.): ≤ 60% | control (percentage reduction in population, % action) (Heliothis spp.): Improved control | control level (Heliothis spp.): ≤ 60% | control of the tested insects (percentage reduction in population or feeding damage, % action) (Anthonomus grandis [4]; [11]): insufficient | control of the tested insects (percentage reduction in population or feeding damage, % action) (Anthonomus grandis [4]; [12]): insufficient | control of the tested insects (percentage reduction in population or feeding damage, % action) (Spodoptera littoralis [5]; non-transgenic cotton treated with compound and conventional CryIIIA-toxin, each 100, 50, 10, 5, 1 ppm, comparison arm for CryIIIA cotton): insufficient | control of the tested insects (percentage reduction in population or feeding damage, % action) (Spodoptera littoralis [5]; [13]): superior | control of the tested insects (percentage reduction in population or feeding damage, % action) (Heliothis virescens [6]; [11]): insufficient | control of the tested insects (percentage reduction in population or feeding damage, % action) (Heliothis virescens [6]; [12]): insufficient

O=[N+]([O-])/N=C1\NCCN1Cc1ccc(Cl)nc1 [imidacloprid]
control of the tested insects (percentage reduction in population or feeding damage, % action) (Anthonomus grandis [1]; [7]): superior | control of the tested insects (percentage reduction in population or feeding damage, % action) (Anthonomus grandis [1]; [8]): superior | control of the tested insects (percentage reduction in population or feeding damage, % action) (Spodoptera littoralis [2]; [9]): insufficient | control of the tested insects (percentage reduction in population or feeding damage, % action) (Spodoptera littoralis [2]; [10]): superior | control of the tested insects (percentage reduction in population or feeding damage, % action) (Heliothis virescens [3]; [7]): superior | control of the tested insects (percentage reduction in population or feeding damage, % action) (Heliothis virescens [3]; [8]): superior | control (percentage reduction in population, % action) (Ostrinia nubilalis): Improved control | control level (Ostrinia nubilalis): ≤ 60% | control (percentage reduction in population, % action) (Spodoptera spp.): Improved control | control level (Spodoptera spp.): ≤ 60% | control (percentage reduction in population, % action) (Heliothis spp.): Improved control | control level (Heliothis spp.): ≤ 60% | control of the tested insects (percentage reduction in population or feeding damage, % action) (Anthonomus grandis [4]; [12]): insufficient | control of the tested insects (percentage reduction in population or feeding damage, % action) (Spodoptera littoralis [5]; [13]): superior | control of the tested insects (percentage reduction in population or feeding damage, % action) (Heliothis virescens [6]; [12]): insufficient
